# Laboratory results from PubChem BioAssay AID328 (DTP/NCI, 2004).
# “And” between values parts separate entries of the source, which are not always exact repeats. Identical values can stand only once. Inconclusive results and toxic doses are left out.
# System: BDF1 mice, P388 leukemia ip, median survival T/C
# Experiment: NCI In Vivo Anticancer Drug Screen. Data for tumor model P388 Leukemia (intraperitoneal) in B6D2F1 (BDF1) mice
# Details: endpoint: median survival time, higher = longer survival
# Method in brief: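 In tumour-bearing mice, survival after compound treatment is set against the vehicle group and given as a quotient.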
# [1] = dose: 100.0 mg/kg/injection, schedule: Q01DX009 (ip), vehicle: saline
# [2] = dose: 200.0 mg/kg/injection, schedule: Q01DX009 (ip), vehicle: saline
# [3] = dose: 25.0 mg/kg/injection, schedule: Q01DX009 (ip), vehicle: saline with Tween-80
# [4] = dose: 50.0 mg/kg/injection, schedule: Q01DX009 (ip), vehicle: saline with Tween-80
# [5] = dose: 100.0 mg/kg/injection, schedule: Q01DX009 (ip), vehicle: saline with Tween-80
# [6] = dose: 200.0 mg/kg/injection, schedule: Q01DX009 (ip), vehicle: saline with Tween-80
# [7] = dose: 100.0 mg/kg/injection, schedule: Q04DX003 (ip), vehicle: Klucel (hydroxypropylcellulose) (HPC)
# [8] = dose: 200.0 mg/kg/injection, schedule: Q04DX003 (ip), vehicle: Klucel (hydroxypropylcellulose) (HPC)
# [9] = dose: 400.0 mg/kg/injection, schedule: Q01DX009 (ip), vehicle: saline with Tween-80
# [10] = dose: 100.0 mg/kg/injection, schedule: Q04DX003 (ip), vehicle: saline with Tween-80
# [11] = dose: 200.0 mg/kg/injection, schedule: Q04DX003 (ip), vehicle: saline with Tween-80
# [12] = dose: 400.0 mg/kg/injection, schedule: Q04DX003 (ip), vehicle: saline with Tween-80
# [13] = dose: 100.0 mg/kg/injection, schedule: Q01DX001 (ip), vehicle: Klucel (hydroxypropylcellulose) (HPC)
# [14] = dose: 12.5 mg/kg/injection, schedule: Q01DX009 (ip), vehicle: Klucel (hydroxypropylcellulose) (HPC)
# [15] = dose: 25.0 mg/kg/injection, schedule: Q01DX009 (ip), vehicle: Klucel (hydroxypropylcellulose) (HPC)
structure (smiles),measurement,setting,value
O=[N+]([O-])c1ccc(/C=N/c2nccs2)o1,T/C,"dose: 3.12 mg/kg/injection, schedule: Q04DX003 (ip), vehicle: saline",107 % of control
same,T/C,"dose: 6.25 mg/kg/injection, schedule: Q04DX003 (ip), vehicle: saline",106 % of control and 107 % of control
same,T/C,"dose: 12.5 mg/kg/injection, schedule: Q01DX009 (ip), vehicle: saline",92 % of control
same,T/C,"dose: 12.5 mg/kg/injection, schedule: Q04DX003 (ip), vehicle: saline",92 % of control and 107 % of control and 115 % of control
same,T/C,"dose: 25.0 mg/kg/injection, schedule: Q01DX009 (ip), vehicle: saline",90 % of control
same,T/C,"dose: 25.0 mg/kg/injection, schedule: Q04DX003 (ip), vehicle: saline",107 % of control and 111 % of control and 115 % of control
same,T/C,"dose: 50.0 mg/kg/injection, schedule: Q01DX009 (ip), vehicle: saline",94 % of control
same,T/C,"dose: 50.0 mg/kg/injection, schedule: Q04DX003 (ip), vehicle: saline",101 % of control and 107 % of control
same,T/C,[1],86 % of control
same,T/C,"dose: 100.0 mg/kg/injection, schedule: Q04DX003 (ip), vehicle: saline",109 % of control and 110 % of control
same,T/C,[2],98 % of control
COC(=O)C1=COC(C)C2CN3CCc4c([nH]c5ccccc45)C3CC12 (configuration not stated),T/C,"dose: 20.0 mg/kg/injection, schedule: Q01DX010 (ip), vehicle: saline",90 % of control
same,T/C,"dose: 40.0 mg/kg/injection, schedule: Q01DX010 (ip), vehicle: saline",90 % of control
same,T/C,"dose: 160.0 mg/kg/injection, schedule: Q01DX010 (ip), vehicle: saline",90 % of control
COc1cc2c(cc1OC)C(c1ccc(N=Cc3ccc(N(C)C)cc3)cc1)N(C(=S)Nc1cc(Cl)ccc1Cl)CC2 (configuration not stated),T/C,[3],97 % of control
same,T/C,[4],93 % of control and 97 % of control
same,T/C,[5],95 % of control
same,T/C,[6],89 % of control
COc1ccc(C2CC(c3ccccc3O)=NC(c3ccc(OC)cc3)N2)cc1 (configuration not stated),T/C,[3],91 % of control
same,T/C,[4],94 % of control
same,T/C,[5],92 % of control
CC(C)(C)c1cccc(C(C)(C)C)c1,T/C,"dose: 100.0 mg/kg/injection, schedule: Q01DX001 (ip), vehicle: saline with Tween-80",100 % of control
same,T/C,"dose: 200.0 mg/kg/injection, schedule: Q01DX001 (ip), vehicle: saline with Tween-80",94 % of control
CCN(CC)C(=O)c1ccc(C(Cl)(Cl)Cl)cc1,T/C,"dose: 12.5 mg/kg/injection, schedule: Q01DX009 (ip), vehicle: saline with Tween-80",102 % of control
same,T/C,[4],100 % of control and 109 % of control and 120 % of control
same,T/C,[5],100 % of control (2×) and 104 % of control
same,T/C,[7],100 % of control
same,T/C,"dose: 176.0 mg/kg/injection, schedule: Q04DX003 (ip), vehicle: saline sonified",104 % of control
same,T/C,[6],112 % of control
same,T/C,[8],95 % of control
same,T/C,"dose: 264.0 mg/kg/injection, schedule: Q04DX003 (ip), vehicle: saline sonified",104 % of control
same,T/C,[9],109 % of control
NC(C(=O)O)C1=CCC=CC1 (configuration not stated),T/C,[4],98 % of control
same,T/C,[5],99 % of control
COc1ccc(CCNC(=O)Cc2ccccc2)cc1OC,T/C,[5],95 % of control
same,T/C,[10],109 % of control
same,T/C,[6],90 % of control
same,T/C,[11],100 % of control
same,T/C,[9],100 % of control
same,T/C,[12],100 % of control
CCCCCCCCCCOc1ccc(C=O)c(OC)c1,T/C,[13],100 % of control
same,T/C,"dose: 200.0 mg/kg/injection, schedule: Q01DX001 (ip), vehicle: Klucel (hydroxypropylcellulose) (HPC)",100 % of control
same,T/C,"dose: 400.0 mg/kg/injection, schedule: Q01DX001 (ip), vehicle: Klucel (hydroxypropylcellulose) (HPC)",104 % of control
O=NN(CCCl)C(=O)Nc1ccc2[nH]c3ccccc3c2c1,T/C,"dose: 30.0 mg/kg/injection, schedule: Q01DX009 (ip), vehicle: Klucel (hydroxypropylcellulose) (HPC)",183 % of control
same,T/C,"dose: 45.0 mg/kg/injection, schedule: Q01DX009 (ip), vehicle: Klucel (hydroxypropylcellulose) (HPC)",175 % of control
same,T/C,"dose: 65.0 mg/kg/injection, schedule: Q01DX009 (ip), vehicle: Klucel (hydroxypropylcellulose) (HPC)",183 % of control and 192 % of control
same,T/C,"dose: 130.0 mg/kg/injection, schedule: Q01DX009 (ip), vehicle: Klucel (hydroxypropylcellulose) (HPC)",208 % of control
Cc1nc(N)c([N+](=O)[O-])cc1[N+](=O)[O-],T/C,[13],87 % of control
CCc1cc(O)c(Cl)c(C)c1Cl,T/C,"dose: 50.0 mg/kg/injection, schedule: Q01DX009 (ip), vehicle: gum acacia",119 % of control
same,T/C,"dose: 50.0 mg/kg/injection, schedule: Q04DX003 (ip), vehicle: gum acacia",111 % of control
same,T/C,"dose: 100.0 mg/kg/injection, schedule: Q01DX009 (ip), vehicle: gum acacia",111 % of control
same,T/C,"dose: 100.0 mg/kg/injection, schedule: Q04DX003 (ip), vehicle: gum acacia",100 % of control
same,T/C,"dose: 200.0 mg/kg/injection, schedule: Q04DX003 (ip), vehicle: gum acacia",100 % of control
CC(=O)OC(C)C1C2=C(C(=O)CC1(C)O)C(=O)c1c(ccc(-c3ccc4c(c3O)C(=O)C3=C(C4=O)C(C(C)OC(C)=O)C(C)(O)CC3=O)c1O)C2=O (configuration not stated),T/C,"dose: 6.25 mg/kg/injection, schedule: Q01DX009 (ip), vehicle: saline with Tween-80",122 % of control
C[n+]1c(-c2ccccc2)c2cc(N)ccc2c2ccc(N)cc21,T/C,"dose: 25.0 mg/kg/injection, schedule: Q04DX003 (ip), vehicle: saline with Tween-80",171 % of control
same,T/C,"dose: 50.0 mg/kg/injection, schedule: Q04DX003 (ip), vehicle: saline with Tween-80",90 % of control
O=C(C=P(c1ccccc1)(c1ccccc1)c1ccccc1)CCl,T/C,"dose: 6.25 mg/kg/injection, schedule: Q01DX009 (ip), vehicle: Klucel (hydroxypropylcellulose) (HPC)",91 % of control
same,T/C,"dose: 6.25 mg/kg/injection, schedule: Q04DX003 (ip), vehicle: Klucel (hydroxypropylcellulose) (HPC)",100 % of control
same,T/C,[14],91 % of control
same,T/C,"dose: 12.5 mg/kg/injection, schedule: Q04DX003 (ip), vehicle: Klucel (hydroxypropylcellulose) (HPC)",100 % of control
same,T/C,[15],100 % of control
same,T/C,"dose: 25.0 mg/kg/injection, schedule: Q04DX003 (ip), vehicle: Klucel (hydroxypropylcellulose) (HPC)",100 % of control
CC1=NNC(=O)/C1=C\c1ccccc1,T/C,[3],103 % of control
same,T/C,[4],99 % of control
same,T/C,[5],108 % of control
CCOP(=S)(N1CC1(C)C)N1CC1(C)C (configuration not stated),T/C,"dose: 264.0 mg/kg/injection, schedule: Q04DX003 (ip), vehicle: saline with Tween-80",229 % of control
Cc1ccc(C2(C#N)CC2)cc1,T/C,[5],108 % of control
same,T/C,[10],100 % of control
same,T/C,[6],112 % of control
same,T/C,[11],108 % of control
same,T/C,[9],116 % of control
same,T/C,[12],116 % of control
CCCC(=O)Oc1ccc(/C=N/NC(N)=S)nc1,T/C,"dose: 44.0 mg/kg/injection, schedule: Q01DX009 (ip), vehicle: saline with Tween-80",172 % of control
same,T/C,[4],173 % of control
same,T/C,"dose: 66.0 mg/kg/injection, schedule: Q01DX009 (ip), vehicle: saline with Tween-80",183 % of control
same,T/C,[5],201 % of control and 211 % of control
same,T/C,"dose: 150.0 mg/kg/injection, schedule: Q01DX009 (ip), vehicle: saline with Tween-80",227 % of control
same,T/C,[6],115 % of control
CC(C)=CC(=O)OCC1CC[N+](C)([O-])C1 (configuration not stated),T/C,[1],100 % of control
same,T/C,"dose: 200.0 mg/kg/injection, schedule: Q01DX001 (ip), vehicle: saline",95 % of control
same,T/C,[2],91 % of control
same,T/C,"dose: 400.0 mg/kg/injection, schedule: Q01DX009 (ip), vehicle: saline",103 % of control
same,T/C,"dose: 800.0 mg/kg/injection, schedule: Q01DX001 (ip), vehicle: saline",91 % of control
same,T/C,"dose: 800.0 mg/kg/injection, schedule: Q01DX009 (ip), vehicle: saline",103 % of control
O=C1c2ccccc2S(=O)(=O)N1CCCBr,T/C,[14],95 % of control
same,T/C,[15],110 % of control
same,T/C,"dose: 50.0 mg/kg/injection, schedule: Q01DX009 (ip), vehicle: Klucel (hydroxypropylcellulose) (HPC)",105 % of control
same,T/C,[7],95 % of control
same,T/C,[8],95 % of control
same,T/C,"dose: 400.0 mg/kg/injection, schedule: Q04DX003 (ip), vehicle: Klucel (hydroxypropylcellulose) (HPC)",95 % of control
O=C1CC(=Nc2ccccc2)N(c2ccccc2)N1,T/C,"dose: 33.75 mg/kg/injection, schedule: Q01DX009 (ip), vehicle: saline with Tween-80",109 % of control
same,T/C,"dose: 67.5 mg/kg/injection, schedule: Q01DX009 (ip), vehicle: saline with Tween-80",91 % of control
same,T/C,"dose: 135.0 mg/kg/injection, schedule: Q01DX009 (ip), vehicle: saline with Tween-80",89 % of control
CCC(C(O)c1cccs1)C(O)(C(F)(F)F)C(F)(F)F (configuration not stated),T/C,[10],95 % of control
same,T/C,[11],100 % of control
O=C(COc1ccc([N+](=O)[O-])cc1)Nc1cccnc1,T/C,[10],100 % of control
same,T/C,[12],100 % of control
